Consider four compounds from PMC7834858 (Antiviral Research, 2020).

For data set [1], the target named is SARS-CoV-2 3CLpro (Severe acute respiratory syndrome coronavirus 2, UniProt P0DTD1). In kind it is biochemical.
The subject of data set [2] is human beta-coronavirus OC43–CoV. Kind of data set: OC43-CoV cytopathic effect antiviral assay in HeLa cells. The data set is classed as cell-based. (In general: Cytopathic effects are the visible damage that an infection or toxin causes in cultured cells.)
The test system of data set [3] is SARS-CoV-2. In kind it is cell-based.
Data set [4] deals with VeroE6 cells.
The test system of data set [5] is human beta-coronavirus OC43–CoV. The data set can be described thus: OC43-CoV cytopathic effect antiviral assay in MRC-5 cells. In kind it is cell-based. As to conditions: MRC5, 120 h, read-out: OC-43 MRC-5 Cells EC50.
The test system of data set [6] is HeLa cells.
For data set [7], the system named is COVID-19. As to conditions: COVID-19 hospitalized patients; ref Beigel et al., 2020; cited from earlier work.
Setting [8] is: no reducing agent vs 1 mM GSH vs 1 mM DTT.

Structures are written as SMILES. Where two headings read alike, the source gives them in different places. Some results are limits rather than exact numbers.

In the case of `CC(C)=CC[C@@H](O)C1=CC(=O)c2c(O)ccc(O)c2C1=O` [Shikonin], in data set [1] (setting [8]), the “Effect of reducing conditions on inhibition potency” value is reported as “marked loss of inhibition in the presence of DTT or GSH”. Also, the “Inhibition of SARS-CoV-2 3CLpro activity in SAMDI-MS assay (in words)” value (from here on “Inhibition of SARS-CoV-2 3CLpro activity”) in data set [1] (reducing conditions (DTT)) is recorded as “failed to inhibit”; in data set [1] (reducing conditions (DTT), listed as shikonin), “did not inhibit”. Moreover, the “Antiviral activity against OC43 (in words)” value (shortened to “Antiviral activity”) in data set [2] is “inactive”. Moreover, in data set [3], the “Inhibition of SARS-CoV-2 replication (in words)” value is “did not inhibit SARS-CoV-2 replication”. Moreover, the “Toxicity to Vero cells (in words)” value in data set [4] is given as “toxic to Vero cells”. Moreover, the EC50 (as a rule, the concentration that produces a half-maximal response) in data set [5] is more than 100 µM. In addition, the “Cytotoxicity (in words)” value in data set [6] is reported as “cytotoxic”.
Consider `O=c1c2ccccc2[se]n1-c1ccccc1` [Ebselen], for which, in data set [1], the “Concentrations at which SARS-CoV-2 3CLpro was inhibited” value was more than 30 µM, the “Effect of reducing conditions on inhibition potency” value was “impacted by the reducing condition” and the “Inhibition of SARS-CoV-2 3CLpro activity” value is listed as “did not inhibit”. The “Antiviral activity” value in data set [2] was “inactive”. In data set [3], the “Inhibition of SARS-CoV-2 replication (in words)” value is “did not inhibit SARS-CoV-2 replication”. In addition, the “Toxicity to Vero cells (in words)” value in data set [4] was “toxic to Vero cells”. The EC50 in data set [5] is more than 100 µM. Further, in data set [6], the “Cytotoxicity (in words)” value is recorded as “cytotoxic”.
With `CCN(CC)C(=S)SSC(=S)N(CC)CC` [Disulfiram], in data set [1] (absence of reducing agent only), the “Concentrations at which SARS-CoV-2 3CLpro was inhibited” value is more than 30 µM. Besides, the “Effect of reducing conditions on inhibition potency” value in data set [1] (setting [8]) is “impacted by the reducing condition”. Further, the “Inhibition of SARS-CoV-2 3CLpro activity” value in data set [1] (reducing conditions (DTT)) is on record as “did not inhibit”. Further, the “Antiviral activity” value in data set [2] is “inactive”. Moreover, in data set [3], the “Inhibition of SARS-CoV-2 replication (in words)” value is given as “did not inhibit SARS-CoV-2 replication”. Moreover, the concentration giving a half-maximal response (EC50) in data set [5] is more than 100 µM.
On to `CCC(CC)COC(=O)[C@H](C)N[P@](=O)(OC[C@H]1O[C@@](C#N)(c2ccc3c(N)ncnn23)[C@H](O)[C@@H]1O)Oc1ccccc1` [Remdesivir], for which the Effect on mortality result in data set [7] is reported as “no significant effect”. In data set [5], the concentration giving a half-maximal response (EC50) came to 0.21 µM.
